{"source": "ChEMBL document CHEMBL4196076", "about": "“An access to a library of novel triterpene derivatives with a promising pharmacological potential by Ugi and Passerini multicomponent reactions” (Eur J Med Chem, 2018)"}
{"tested_on": "NIH3T3", "test": "Cytotoxicity against mouse NIH/3T3 cells after 96 hrs by sulforhodamine-B assay", "format": "cell-based", "details": "NIH3T3, 96 h", "units": {"EC50": "µM"}}
{"smiles": "CC(=O)O[C@H]1CC[C@]2(C)[C@H]3CC=C4[C@@H]5CC(C)(C)CC[C@]5(C(=O)N(CC(=O)NC(C)(C)C)Cc5ccccc5)CC[C@@]4(C)[C@]3(C)CC[C@H]2C1(C)C", "EC50": "> 30"}
{"smiles": "C=CCN(CC(=O)NCC(=O)OC)C(=O)[C@]12CCC(C)(C)C[C@H]1C1=CC[C@@H]3[C@@]4(C)CC[C@H](OC(C)=O)C(C)(C)[C@@H]4CC[C@@]3(C)[C@]1(C)CC2", "EC50": 7.3}
{"smiles": "CCCCNC(=O)CN(Cc1ccccc1)C(=O)[C@]12CCC(C)(C)C[C@H]1C1=CC[C@@H]3[C@@]4(C)CC[C@H](OC(C)=O)C(C)(C)[C@@H]4CC[C@@]3(C)[C@]1(C)CC2", "EC50": "> 30"}
{"smiles": "CC1(C)CC[C@]2(C(=O)N(CC(=O)NC(C)(C)C)Cc3ccoc3)CC[C@]3(C)C(=CC[C@@H]4[C@@]5(C)CC[C@H](O)C(C)(C)[C@@H]5CC[C@]43C)[C@@H]2C1", "EC50": 11.8}
{"tested_on": "MCF7", "test": "Cytotoxicity against human MCF7 cells after 96 hrs by sulforhodamine-B assay", "format": "functional, cell-based", "details": "MCF7, 96 h", "units": {"EC50": "µM"}}
{"smiles": "CC(=O)O[C@H]1CC[C@]2(C)[C@H]3CC=C4[C@@H]5CC(C)(C)CC[C@]5(C(=O)N(CC(=O)NC(C)(C)C)Cc5ccccc5)CC[C@@]4(C)[C@]3(C)CC[C@H]2C1(C)C", "EC50": 14.1}
{"smiles": "C=CCN(CC(=O)NCC(=O)OC)C(=O)[C@]12CCC(C)(C)C[C@H]1C1=CC[C@@H]3[C@@]4(C)CC[C@H](OC(C)=O)C(C)(C)[C@@H]4CC[C@@]3(C)[C@]1(C)CC2", "EC50": 4.6}
{"smiles": "CCCCNC(=O)CN(Cc1ccccc1)C(=O)[C@]12CCC(C)(C)C[C@H]1C1=CC[C@@H]3[C@@]4(C)CC[C@H](OC(C)=O)C(C)(C)[C@@H]4CC[C@@]3(C)[C@]1(C)CC2", "EC50": 22.1}
{"smiles": "CC1(C)CC[C@]2(C(=O)N(CC(=O)NC(C)(C)C)Cc3ccoc3)CC[C@]3(C)C(=CC[C@@H]4[C@@]5(C)CC[C@H](O)C(C)(C)[C@@H]5CC[C@]43C)[C@@H]2C1", "EC50": 4.1}
{"tested_on": "HT-29", "test": "Cytotoxicity against human HT-29 cells after 96 hrs by sulforhodamine-B assay", "format": "functional, cell-based", "details": "HT-29, 96 h", "units": {"EC50": "µM"}}
{"smiles": "CC(=O)O[C@H]1CC[C@]2(C)[C@H]3CC=C4[C@@H]5CC(C)(C)CC[C@]5(C(=O)N(CC(=O)NC(C)(C)C)Cc5ccccc5)CC[C@@]4(C)[C@]3(C)CC[C@H]2C1(C)C", "EC50": "> 30"}
{"smiles": "C=CCN(CC(=O)NCC(=O)OC)C(=O)[C@]12CCC(C)(C)C[C@H]1C1=CC[C@@H]3[C@@]4(C)CC[C@H](OC(C)=O)C(C)(C)[C@@H]4CC[C@@]3(C)[C@]1(C)CC2", "EC50": 11.1}
{"smiles": "CCCCNC(=O)CN(Cc1ccccc1)C(=O)[C@]12CCC(C)(C)C[C@H]1C1=CC[C@@H]3[C@@]4(C)CC[C@H](OC(C)=O)C(C)(C)[C@@H]4CC[C@@]3(C)[C@]1(C)CC2", "EC50": "> 30"}
{"smiles": "CC1(C)CC[C@]2(C(=O)N(CC(=O)NC(C)(C)C)Cc3ccoc3)CC[C@]3(C)C(=CC[C@@H]4[C@@]5(C)CC[C@H](O)C(C)(C)[C@@H]5CC[C@]43C)[C@@H]2C1", "EC50": 6.7}
{"tested_on": "FaDu", "test": "Cytotoxicity against human FADU cells after 96 hrs by sulforhodamine-B assay", "format": "functional, cell-based", "details": "not given", "units": {"EC50": "µM"}}
{"smiles": "CC(=O)O[C@H]1CC[C@]2(C)[C@H]3CC=C4[C@@H]5CC(C)(C)CC[C@]5(C(=O)N(CC(=O)NC(C)(C)C)Cc5ccccc5)CC[C@@]4(C)[C@]3(C)CC[C@H]2C1(C)C", "EC50": 16}
{"smiles": "C=CCN(CC(=O)NCC(=O)OC)C(=O)[C@]12CCC(C)(C)C[C@H]1C1=CC[C@@H]3[C@@]4(C)CC[C@H](OC(C)=O)C(C)(C)[C@@H]4CC[C@@]3(C)[C@]1(C)CC2", "EC50": 12.2}
{"smiles": "CCCCNC(=O)CN(Cc1ccccc1)C(=O)[C@]12CCC(C)(C)C[C@H]1C1=CC[C@@H]3[C@@]4(C)CC[C@H](OC(C)=O)C(C)(C)[C@@H]4CC[C@@]3(C)[C@]1(C)CC2", "EC50": 22.7}
{"smiles": "CC1(C)CC[C@]2(C(=O)N(CC(=O)NC(C)(C)C)Cc3ccoc3)CC[C@]3(C)C(=CC[C@@H]4[C@@]5(C)CC[C@H](O)C(C)(C)[C@@H]5CC[C@]43C)[C@@H]2C1", "EC50": 17.4}
{"tested_on": "A549", "test": "Cytotoxicity against human A549 cells after 96 hrs by sulforhodamine-B assay", "format": "functional, cell-based", "details": "A549, 96 h", "units": {"EC50": "µM"}}
{"smiles": "CC(=O)O[C@H]1CC[C@]2(C)[C@H]3CC=C4[C@@H]5CC(C)(C)CC[C@]5(C(=O)N(CC(=O)NC(C)(C)C)Cc5ccccc5)CC[C@@]4(C)[C@]3(C)CC[C@H]2C1(C)C", "EC50": "> 30"}
{"smiles": "C=CCN(CC(=O)NCC(=O)OC)C(=O)[C@]12CCC(C)(C)C[C@H]1C1=CC[C@@H]3[C@@]4(C)CC[C@H](OC(C)=O)C(C)(C)[C@@H]4CC[C@@]3(C)[C@]1(C)CC2", "EC50": 6.3}
{"smiles": "CCCCNC(=O)CN(Cc1ccccc1)C(=O)[C@]12CCC(C)(C)C[C@H]1C1=CC[C@@H]3[C@@]4(C)CC[C@H](OC(C)=O)C(C)(C)[C@@H]4CC[C@@]3(C)[C@]1(C)CC2", "EC50": "> 30"}
{"smiles": "CC1(C)CC[C@]2(C(=O)N(CC(=O)NC(C)(C)C)Cc3ccoc3)CC[C@]3(C)C(=CC[C@@H]4[C@@]5(C)CC[C@H](O)C(C)(C)[C@@H]5CC[C@]43C)[C@@H]2C1", "EC50": 18.9}
{"tested_on": "518A2", "test": "Cytotoxicity against human 518A2 cells after 96 hrs by sulforhodamine-B assay", "format": "functional, cell-based", "details": "518A2, 96 h", "units": {"EC50": "µM"}}
{"smiles": "CC(=O)O[C@H]1CC[C@]2(C)[C@H]3CC=C4[C@@H]5CC(C)(C)CC[C@]5(C(=O)N(CC(=O)NC(C)(C)C)Cc5ccccc5)CC[C@@]4(C)[C@]3(C)CC[C@H]2C1(C)C", "EC50": 15}
{"smiles": "C=CCN(CC(=O)NCC(=O)OC)C(=O)[C@]12CCC(C)(C)C[C@H]1C1=CC[C@@H]3[C@@]4(C)CC[C@H](OC(C)=O)C(C)(C)[C@@H]4CC[C@@]3(C)[C@]1(C)CC2", "EC50": 7.7}
{"smiles": "CCCCNC(=O)CN(Cc1ccccc1)C(=O)[C@]12CCC(C)(C)C[C@H]1C1=CC[C@@H]3[C@@]4(C)CC[C@H](OC(C)=O)C(C)(C)[C@@H]4CC[C@@]3(C)[C@]1(C)CC2", "EC50": "> 30"}
{"smiles": "CC1(C)CC[C@]2(C(=O)N(CC(=O)NC(C)(C)C)Cc3ccoc3)CC[C@]3(C)C(=CC[C@@H]4[C@@]5(C)CC[C@H](O)C(C)(C)[C@@H]5CC[C@]43C)[C@@H]2C1", "EC50": 13.9}
{"tested_on": "A2780", "test": "Cytotoxicity against human A2780 cells after 96 hrs by sulforhodamine-B assay", "format": "functional, cell-based", "details": "A2780, 96 h", "units": {"EC50": "µM"}}
{"smiles": "CC(=O)O[C@H]1CC[C@]2(C)[C@H]3CC=C4[C@@H]5CC(C)(C)CC[C@]5(C(=O)N(CC(=O)NC(C)(C)C)Cc5ccccc5)CC[C@@]4(C)[C@]3(C)CC[C@H]2C1(C)C", "EC50": 2.7}
{"smiles": "C=CCN(CC(=O)NCC(=O)OC)C(=O)[C@]12CCC(C)(C)C[C@H]1C1=CC[C@@H]3[C@@]4(C)CC[C@H](OC(C)=O)C(C)(C)[C@@H]4CC[C@@]3(C)[C@]1(C)CC2", "EC50": 3.5}
{"smiles": "CCCCNC(=O)CN(Cc1ccccc1)C(=O)[C@]12CCC(C)(C)C[C@H]1C1=CC[C@@H]3[C@@]4(C)CC[C@H](OC(C)=O)C(C)(C)[C@@H]4CC[C@@]3(C)[C@]1(C)CC2", "EC50": 3}
{"smiles": "CC1(C)CC[C@]2(C(=O)N(CC(=O)NC(C)(C)C)Cc3ccoc3)CC[C@]3(C)C(=CC[C@@H]4[C@@]5(C)CC[C@H](O)C(C)(C)[C@@H]5CC[C@]43C)[C@@H]2C1", "EC50": 10}
{"tested_on": "not listed separately", "test": "Selectivity index, ratio of EC50 for mouse NIH/3T3 cells to EC50 for human A2780 cells", "format": "toxicity", "details": "NIH/3T3 cells and A2780 cells, read-out: Ratio EC50"}
{"smiles": "CC(=O)O[C@H]1CC[C@]2(C)[C@H]3CC=C4[C@@H]5CC(C)(C)CC[C@]5(C(=O)N(CC(=O)NC(C)(C)C)Cc5ccccc5)CC[C@@]4(C)[C@]3(C)CC[C@H]2C1(C)C", "selectivity ratio": "> 11"}
{"smiles": "C=CCN(CC(=O)NCC(=O)OC)C(=O)[C@]12CCC(C)(C)C[C@H]1C1=CC[C@@H]3[C@@]4(C)CC[C@H](OC(C)=O)C(C)(C)[C@@H]4CC[C@@]3(C)[C@]1(C)CC2", "selectivity ratio": 2.1}
